# What was measured:
# [1] = tested on: clinically isolated MRSA strain (n=9), which has low sensitivity to arbekacin; assay: Antimicrobial activity (MIC), agar plate dilution method, MRSA with low sensitivity to arbekacin; assay type: cell-based, methicillin-resistant Staphylococcus aureus (MRSA); conditions: Staphylococcus aureus, clinically isolated MRSA strain (n=9) with low sensitivity to arbekacin, read-out: minimal inhibitory concentration (MIC)
# Experimental: MIC of the compound represented by formula (I) produced in Example 1 against an MRSA strain, specifically a clinically isolated MRSA strain (n=9), which has low sensitivity to arbekacin and against which the minimal inhibitory concentration (MIC, μg/mL) is 4 to 8, was measured by an agar plate dilution method according to the standard method of Japan Society of Chemotherapy (Chemotherapy, Vol. 29, pp. 76 to 79, 1981).
# kidney of normal mice = conditions: mouse, in vivo; for Amount of NAG in urine: ip, 120 mg/kg/day
# Experimental: An evaluation system of influence on the kidney was constructed based on renal disease model preparation method using gentamicin (KIDNEY AND DIALYSIS, Vol. 31, 1991, extra edition, “Renal Disease Model”, p. 423 “Drug-induced Renal Damage and its Examination Method,” Kidney and Dialysis Editorial Committee, published by TOKYOIGAKUSYA). The influence of the compound represented by formula (I) produced in Example 1 on the kidney was evaluated using this evaluation system. A physiological saline administration group and an arbekacin administration group were set as control groups. Each group consisted of four mice (Crj: CD-1 (ICR) female mice of eight weeks old).
# In the above evaluation system, the evaluation of nephrotoxicity was carried out using NAG as an index. NAG exists in lysosome in each tissue of humans and animals, is an enzyme, which converts a mucopolysaccharide to a glycoprotein, for example, converts β-N-acetyl-D-glucosaminide to β-N-acetyl-D-glucosamine, and is plentifully present in proximal uriniferous tubule epithelial cells of the kidney in which aminoglycoside antibiotics are particularly accumulated. When the kidney, especially its proximal uriniferous tubule is damaged, NAG is released into urine to increase the amount of NAG in the urine. Accordingly, the increase in the amount of NAG in urine is considered to reflect proximal uriniferous tubule damage and is adopted as one of biochemical markers for estimating the level of renal insufficiency in clinical test items. The amount of NAG is measured by an examination method, for example, an MCP-NAG method (Outline of Latest Internal Medicine, Vol. 4, Clinical Laboratory—Kensa No Susumekata To Deta No Yomikata (How To Forward Examination and How To Read Data)—<Naika Soron 4 (General Remarks Of Internal Medicine 4> p. 274, Imura et al. (ed.), published by Nakayama Syoten Co., Ltd., 1994).
# A solution of physiological saline of the compound according to the present invention having a concentration of 12 mg/mL was administered to the mice in each group at a dose of 120 mg/kg/day (in two divided doses; morning and afternoon) for 4 days by repeated intraperitoneal administration. Naturally excreted urine was collected for about 24 hr from the completion of the administration in the morning on day 4, and the amount of NAG in the urine was measured by the MCP-NAG method. The same treatment was carried out for the physiological saline administration group and the arbekacin administration group.
# The influence of arbekacin and an arbekacin analogue TS2037 (5,4″-diepiarbekacin) produced according to the description of WO 2005/070945 on the kidney was evaluated in the same manner as in Test Example 3. […]
# [2] = tested on: clinically isolated MRSA strain, which has high resistance to arbekacin; assay: Antimicrobial activity (MIC), agar plate dilution method, MRSA with high resistance to arbekacin; assay type: cell-based, methicillin-resistant Staphylococcus aureus (MRSA); conditions: Staphylococcus aureus, different from Test Example 1
# [3] = tested on: proximal uriniferous tubule epithelial cells of the kidney of pigs; conditions: pig kidney proximal uriniferous tubule epithelial cells; compared with arbekacin; 44th ICAAC (2004) subject No. F-716; cited from earlier work
structure (smiles),measurement,setting,value
"NCC[C@H](O)C(=O)NC1C(O)[C@H](N)C(O[C@H]2OC(CN)CCC2N)C(O)[C@H]1O[C@H]1OC(CO)[C@@H](O)C(N)C1O (stereo in doubt) [Compound represented by formula (I), 2-Hydroxyarbekacin]",MIC,[1],0.5 to 2 µg/mL
same,Amount of NAG in urine,kidney of normal mice,74.7 mIU
"NCC[C@H](O)C(=O)N[C@@H]1C[C@H](N)[C@@H](O[C@H]2O[C@H](CN)CC[C@H]2N)[C@H](O)[C@H]1O[C@H]1O[C@H](CO)[C@@H](O)[C@H](N)[C@H]1O [Arbekacin, (S)-1-N-(4-amino-2-hydroxybutyryl)dibekacin]",MIC,[1],4 to 8 µg/mL
same,MIC,[2],128 µg/mL
same,amount of NAG in the urine,kidney of normal mice,168.5 mIU
same,Amount of NAG in urine,kidney of normal mice,135.0 mIU
"NCC[C@H](O)C(=O)NC1C[C@H](N)C(O[C@H]2OC(CN)CCC2N)C(O)[C@H]1O[C@H]1OC(CO)[C@H](O)C(N)C1O (some centres unmarked) [TS2037, 5,4″-diepiarbekacin]",nephrotoxicity using NAG as an index,[3],higher than that of arbekacin
same,amount of NAG in the urine,kidney of normal mice,358.8 mIU
